Measurements published in patent US20100298141A1, “SUBSTITUTED PYRIDINE N-OXIDE HERBICIDES” (E. I. DU PONT DE NEMOURS AND COMPANY, priority 2007, published 2010).

Columns and labels:
common ragweed = experiment: Test C pre-/postemergence test; format: in vivo, Ambrosia elation; settings: for Plant response rating, Ragweed: scale 0 to 100, 0 no effect, 100 complete control
Method in brief: (§1)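 Compounds in a non-phytotoxic solvent with surfactant applied preemergence to seeded pots and, at the same time, postemergence to plants 2–18 cm tall (1- to 4-leaf stage). Paddy tests: pots flooded to 3 cm, compound applied into the water, depth held throughout.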

redroot pigweed = experiment: Test A pre-/postemergence greenhouse test; format: in vivo, Amaranthus retroflexus; settings: for Pigweed plant response rating: 0 to 100 scale
Method in brief: (§2)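 Test compounds in non-phytotoxic solvent with surfactant were applied as a preemergence soil spray to seeded loam/sand pots and, concurrently, postemergence to plants at 2–10 cm, one- to two-leaf stage. About ten days in greenhouse, then injury visually rated against untreated controls.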

green foxtail = experiment: Test C pre-/postemergence test; format: in vivo, Setaria viridis; settings: for Plant response rating, Foxtail, Green: scale 0 to 100, 0 no effect, 100 complete control
Method in brief: as §1

crabgrass = experiment: Test A pre-/postemergence greenhouse test; format: in vivo, Digitaria sanguinalis; settings: for Crabgrass, Large plant response rating: 0 to 100 scale
Method in brief: as §2

wild oat = experiment: Test C pre-/postemergence test; format: in vivo, Avena fatua; settings: for Plant response rating, Oat, Wild: scale 0 to 100, 0 no effect, 100 complete control
Method in brief: as §1

Italian ryegrass = experiment: Test C pre-/postemergence test; format: in vivo, Lolium multiflorum; settings: for Plant response rating, Ryegrass, Italian: scale 0 to 100, 0 no effect, 100 complete control
Method in brief: as §1

Goosegrass = experiment: Test C pre-/postemergence test; format: in vivo, Eleusin indica; settings: for Plant response rating, Goosegrass: scale 0 to 100, 0 no effect, 100 complete control
Method in brief: as §1

yellow nutsedge = experiment: Test C pre-/postemergence test; format: in vivo, Cyperus esculentus; settings: for Plant response rating, Nutsedge, Yellow: scale 0 to 100, 0 no effect, 100 complete control
Method in brief: as §1

blackgrass = experiment: Test C pre-/postemergence test; format: in vivo, Alopecurus myosuroides; settings: for Plant response rating, Blackgrass: scale 0 to 100, 0 no effect, 100 complete control
Method in brief: as §1

[1] = tested on: common (oilseed) sunflower; experiment: Test C pre-/postemergence test; format: in vivo, Helianthus annuus; settings: for Sunflower plant response rating: preemergence, scale 0 (no effect) to 100 (complete control)
Method in brief: as §1

corn = experiment: Test C pre-/postemergence test; format: in vivo, Zea mays; settings: for Plant response rating, Corn: scale 0 to 100, 0 no effect, 100 complete control
Method in brief: as §1

wheat = experiment: Test C pre-/postemergence test; format: in vivo, Triticum aestivum; settings: for Wheat plant response rating: preemergence, scale 0 (no effect) to 100 (complete control); for Plant response rating, Wheat: scale 0 to 100, 0 no effect, 100 complete control
Method in brief: as §1

woolly cupgrass = experiment: Test C pre-/postemergence test; format: in vivo, Eriochloa villosa; settings: for Plant response rating, Cupgrass, Woolly: scale 0 to 100, 0 no effect, 100 complete control
Method in brief: as §1

morningglory = experiment: Test A pre-/postemergence greenhouse test; format: in vivo, Ipomoea spp.; settings: for Morningglory plant response rating: 0 to 100 scale
Method in brief: as §2

eastern black nightshade = experiment: Test C pre-/postemergence test; format: in vivo, Solanum ptycanthum
Method in brief: as §1

[2] = 31 g ai/ha, Preemergence, scale 0 to 100
[3] = 62 g ai/ha, preemergence, scale 0 (no effect) to 100 (complete control)
[4] = preemergence, 125 g ai/ha, scale 0 (no effect) to 100 (complete control)
[5] = Postemergence, 125 g ai/ha, 0 is no effect, 100 is complete control
[6] = Postemergence, 500 g ai/ha, 0 is no effect, 100 is complete control
[7] = Preemergence, 125 g ai/ha, 0 no effect, 100 complete control
[8] = Preemergence, 500 g ai/ha, 0 to 100 scale where 0 is no effect and 100 is complete control

For `Cn1nc(C(F)(F)F)c(C[S+]([O-])c2cccc[n+]2[O-])c1OC(F)F` (centres unmarked) [Compound 3], the “Ragweed plant response rating” value (common ragweed; [2]) was 100, the “Ragweed plant response rating” value (common ragweed; [3]) was 100 and the “Plant response rating (0 to 100), Ragweed” value (common ragweed; Postemergence, 31 g ai/ha) was 5. For the same compound, the “Plant response rating (0 to 100), Ragweed” value (common ragweed; Postemergence, 62 g ai/ha) was 5, the “Plant response rating, Ragweed” value (common ragweed; Postemergence, 125 g ai/ha) was 50 and the “Plant response rating, Ragweed” value (common ragweed; Postemergence, 250 g ai/ha) was 50. For the same compound, the “Plant response rating (0 to 100), Ragweed” value (common ragweed; Preemergence, 250 g ai/ha) was 100, the “Ragweed plant response rating” value (common ragweed; [4]) was 100 and the “Pigweed plant response rating” value (redroot pigweed; [5]) was 80. For the same compound, the “Pigweed plant response rating” value (redroot pigweed; [6]) was 90, the “Pigweed plant response rating” value (redroot pigweed; [7]) was 100 and the “Plant response rating, Pigweed” value (redroot pigweed; [8]) was 100. For the same compound, the “Foxtail, Green plant response rating” value (green foxtail; [2]) was 75, the “Foxtail, Green plant response rating” value (green foxtail; [3]) was 85 and the “Plant response rating (0 to 100), Foxtail, Green” value (green foxtail; Postemergence, 31 g ai/ha) was 0. The “Plant response rating, Foxtail, Green” value (green foxtail; Postemergence, 62 g ai/ha) was 0, the “Plant response rating, Foxtail, Green” value (green foxtail; Postemergence, 125 g ai/ha) was 10 and the “Plant response rating, Foxtail, Green” value (green foxtail; Postemergence, 250 g ai/ha) was 55. For the same compound, the “Plant response rating (0 to 100), Foxtail, Green” value (green foxtail; Preemergence, 250 g ai/ha) was 100, the “Foxtail, Green plant response rating” value (green foxtail; [4]) was 98 and the “Crabgrass, Large plant response rating” value (crabgrass; [5]) was 80. The “Crabgrass, Large plant response rating” value (crabgrass; [6]) was 90, the “Crabgrass, Large plant response rating” value (crabgrass; [7]) was 90 and the “Plant response rating, Crabgrass, Large” value (crabgrass; [8]) was 100. The “Oat, Wild plant response rating” value (wild oat; [2]) was 30, the “Oat, Wild plant response rating” value (wild oat; [3]) was 40 and the “Plant response rating (0 to 100), Oat, Wild” value (wild oat; Postemergence, 31 g ai/ha) was 0. The “Plant response rating, Oat, Wild” value (wild oat; Postemergence, 62 g ai/ha) was 0, the “Plant response rating, Oat, Wild” value (wild oat; Postemergence, 125 g ai/ha) was 0 and the “Plant response rating, Oat, Wild” value (wild oat; Postemergence, 250 g ai/ha) was 0. For the same compound, the “Plant response rating (0 to 100), Oat, Wild” value (wild oat; Preemergence, 250 g ai/ha) was 100, the “Oat, Wild plant response rating” value (wild oat; [4]) was 80 and the “Ryegrass, Italian plant response rating” value (Italian ryegrass; [2]) was 60. For the same compound, the “Ryegrass, Italian plant response rating” value (Italian ryegrass; [3]) was 100, the “Plant response rating (0 to 100), Ryegrass, Italian” value (Italian ryegrass; Postemergence, 31 g ai/ha) was 0 and the “Plant response rating (0 to 100), Ryegrass, Italian” value (Italian ryegrass; Postemergence, 62 g ai/ha) was 0. The “Plant response rating, Ryegrass, Italian” value (Italian ryegrass; Postemergence, 125 g ai/ha) was 0, the “Plant response rating, Ryegrass, Italian” value (Italian ryegrass; Postemergence, 250 g ai/ha) was 40 and the “Plant response rating (0 to 100), Ryegrass, Italian” value (Italian ryegrass; Preemergence, 250 g ai/ha) was 100. For the same compound, the “Ryegrass, Italian plant response rating” value (Italian ryegrass; [4]) was 100, the “Goosegrass plant response rating” value (Goosegrass; [2]) was 85 and the “Goosegrass plant response rating” value (Goosegrass; [3]) was 100. For the same compound, the “Plant response rating (0 to 100), Goosegrass” value (Goosegrass; Postemergence, 31 g ai/ha) was 20, the “Plant response rating, Goosegrass” value (Goosegrass; Postemergence, 62 g ai/ha) was 50 and the “Plant response rating, Goosegrass” value (Goosegrass; Postemergence, 125 g ai/ha) was 65. For the same compound, the “Plant response rating, Goosegrass” value (Goosegrass; Postemergence, 250 g ai/ha) was 80, the “Plant response rating (0 to 100), Goosegrass” value (Goosegrass; Preemergence, 250 g ai/ha) was 100 and the “Goosegrass plant response rating” value (Goosegrass; [4]) was 100. For the same compound, the “Nutsedge, Yellow plant response rating” value (yellow nutsedge; [2]) was 0, the “Nutsedge, Yellow plant response rating” value (yellow nutsedge; [3]) was 100 and the “Plant response rating (0 to 100), Nutsedge, Yellow” value (yellow nutsedge; Postemergence, 31 g ai/ha) was 0. The “Plant response rating, Nutsedge, Yellow” value (yellow nutsedge; Postemergence, 62 g ai/ha) was 0, the “Plant response rating, Nutsedge, Yellow” value (yellow nutsedge; Postemergence, 125 g ai/ha) was 0 and the “Plant response rating, Nutsedge, Yellow” value (yellow nutsedge; Postemergence, 250 g ai/ha) was 0. The “Plant response rating (0 to 100), Nutsedge, Yellow” value (yellow nutsedge; Preemergence, 250 g ai/ha) was 100, the “Nutsedge, Yellow plant response rating” value (yellow nutsedge; [4]) was 100 and the “Blackgrass plant response rating” value (blackgrass; [2]) was 70. The “Blackgrass plant response rating” value (blackgrass; [3]) was 70, the “Plant response rating (0 to 100), Blackgrass” value (blackgrass; Postemergence, 31 g ai/ha) was 0 and the “Plant response rating, Blackgrass” value (blackgrass; Postemergence, 62 g ai/ha) was 0. The “Plant response rating, Blackgrass” value (blackgrass; Postemergence, 125 g ai/ha) was 0, the “Plant response rating, Blackgrass” value (blackgrass; Postemergence, 250 g ai/ha) was 20 and the “Plant response rating (0 to 100), Blackgrass” value (blackgrass; Preemergence, 250 g ai/ha) was 100. The “Blackgrass plant response rating” value (blackgrass; [4]) was 100, the “Sunflower plant response rating” value ([1]; 62 g ai/ha) was 15 and the “Plant response rating (0 to 100), Sunflower” value ([1]; Preemergence, 250 g ai/ha) was 95. The “Sunflower plant response rating” value ([1]; 125 g ai/ha) was 70, the “Corn plant response rating” value (corn; [2]) was 50 and the “Corn plant response rating” value (corn; [3]) was 75. For the same compound, the “Plant response rating (0 to 100), Corn” value (corn; Postemergence, 31 g ai/ha) was 0, the “Plant response rating, Corn” value (corn; Postemergence, 62 g ai/ha) was 5 and the “Plant response rating, Corn” value (corn; Postemergence, 125 g ai/ha) was 5. For the same compound, the “Plant response rating, Corn” value (corn; Postemergence, 250 g ai/ha) was 5, the “Plant response rating (0 to 100), Corn” value (corn; Preemergence, 250 g ai/ha) was 98 and the “Corn plant response rating” value (corn; [4]) was 90. The “Wheat plant response rating” value (wheat; 62 g ai/ha) was 20, the “Plant response rating (0 to 100), Wheat” value (wheat; Postemergence, 31 g ai/ha) was 0 and the “Plant response rating (0 to 100), Wheat” value (wheat; Postemergence, 62 g ai/ha) was 0. For the same compound, the “Plant response rating, Wheat” value (wheat; Postemergence, 125 g ai/ha) was 0, the “Plant response rating, Wheat” value (wheat; Postemergence, 250 g ai/ha) was 0 and the “Plant response rating (0 to 100), Wheat” value (wheat; Preemergence, 250 g ai/ha) was 80. The “Wheat plant response rating” value (wheat; 125 g ai/ha) was 70, the “Cupgrass, Woolly plant response rating” value (woolly cupgrass; [2]) was 60 and the “Cupgrass, Woolly plant response rating” value (woolly cupgrass; [3]) was 60. The “Plant response rating (0 to 100), Cupgrass, Woolly” value (woolly cupgrass; Postemergence, 31 g ai/ha) was 0, the “Plant response rating, Cupgrass, Woolly” value (woolly cupgrass; Postemergence, 62 g ai/ha) was 0 and the “Plant response rating, Cupgrass, Woolly” value (woolly cupgrass; Postemergence, 125 g ai/ha) was 20. For the same compound, the “Plant response rating, Cupgrass, Woolly” value (woolly cupgrass; Postemergence, 250 g ai/ha) was 40, the “Plant response rating (0 to 100), Cupgrass, Woolly” value (woolly cupgrass; Preemergence, 250 g ai/ha) was 100 and the “Cupgrass, Woolly plant response rating” value (woolly cupgrass; [4]) was 85. For the same compound, the “Morningglory plant response rating” value (morningglory; [5]) was 70, the “Morningglory plant response rating” value (morningglory; [6]) was 90 and the “Morningglory plant response rating” value (morningglory; [7]) was 80. For the same compound, the “Plant response rating, Morningglory” value (morningglory; [8]) was 100, the “Nightshade plant response rating” value (eastern black nightshade; [2]) was 85 and the “Nightshade plant response rating” value (eastern black nightshade; [3]) was 98. The “Plant response rating (0 to 100), Nightshade” value (eastern black nightshade; Preemergence, 250 g ai/ha) was 100 and the “Nightshade plant response rating” value (eastern black nightshade; [4]) was 98.
